IC50 data for 31 compounds are collected here from ChEMBL document CHEMBL5726928, “Aryl, heteroaryl, and heterocyclic compounds for treatment of medical disorders” (2019).

One may read the pIC50 as the IC50 on a negative log10 scale, so that one unit is a factor of ten.

pIC50: −log10 of the molar value.

The target of the test is Complement factor D (Homo sapiens, UniProt P00746). Nature of the test: Human Factor D Assay: Human Factor D (purified from human serum, Complement Technology, Inc.) at 80 nM final concentration was incubated with test compound at various concentrations for 5 minutes at room temperature in 50 mM Tris, 1M NaCl, pH 7.5. A synthetic substrate Z-L-Lys-SBzl and DTNB (Ellman's reagent) are added to final concentrations of 100 μM each. […] IC50 values are calculated by nonlinear regression of complement Factor D reaction rates as a function of test compound concentration.
Complement factor D, sequence (P00746 whole entry): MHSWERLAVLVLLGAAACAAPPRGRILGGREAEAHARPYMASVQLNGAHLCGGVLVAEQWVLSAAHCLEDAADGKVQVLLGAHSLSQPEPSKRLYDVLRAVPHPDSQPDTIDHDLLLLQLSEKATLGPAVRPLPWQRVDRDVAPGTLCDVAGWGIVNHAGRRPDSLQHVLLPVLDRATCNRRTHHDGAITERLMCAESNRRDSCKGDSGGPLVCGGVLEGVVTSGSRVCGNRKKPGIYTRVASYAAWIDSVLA
Regarding `Cc1cc2ncc(-c3ccc4c(c3)c(C(N)=O)nn4CC(=O)N3C[C@H](F)C[C@H]3C(=O)Nc3cccc(OC(F)(F)F)c3F)cn2n1`, the pIC50 was greater than 6.00.
Turning to `CC(=O)c1nn(CC(=O)N2C[C@H](F)C[C@H]2C(=O)Nc2nn(CC(F)(F)F)cc2C)c2ccc(-c3cnc(C)nc3)cc12`, the negative logarithm of the IC50 (pIC50) is greater than 6.00.
Next, `CC(=O)c1nn(CC(=O)N2C[C@H](F)C[C@H]2C(=O)Nc2cccc(Br)n2)c2ccc(-c3nc4ccccc4[nH]3)cc12`: greater than 6.00; `CC(=O)c1nn(CC(=O)N2C[C@H](F)C[C@H]2C(=O)Nc2cccc(C)n2)c2ccc(-c3cnc(C)nc3)cc12`: greater than 6.00; `CC(=O)c1nn(CC(=O)N2C[C@H](F)C[C@H]2C(=O)Nc2cccnn2)c2ccc(-c3cnc4cc(C)nn4c3)cc12`: greater than 6.00.
`COCCNc1ncc(-c2ccc3c(c2)c(C(C)=O)cn3CC(=O)N2[C@@H]3C[C@@H]3C[C@H]2C(=O)Nc2cccc(Br)n2)cn1`: the negative logarithm of the IC50 (pIC50) was greater than 6.00.
Take `CC(=O)c1nn(CC(=O)N2C[C@H](F)C[C@H]2C(=O)Nc2cccc(Br)n2)c2ccc(-c3cnnc(C)c3)cc12`: the negative-log IC50 (pIC50) was greater than 6.00.
Next, `CCOC(=O)Cc1ncc(-c2ccc3c(c2)c(C(C)=O)nn3CC(=O)N2C[C@H](F)C[C@H]2C(=O)Nc2nc(Br)ccc2C)cn1`: greater than 6.00; `CC(=O)c1nn(CC(=O)N2C[C@H](F)C[C@H]2C(=O)Nc2cccc(Br)n2)c2ccc(-c3cnc([S+](C)[O-])nc3)cc12` (stereo partly specified): greater than 6.00; `CC(=O)c1nn(CC(=O)N2C[C@H](F)C[C@H]2C(=O)Nc2cccc(OC(F)(F)F)c2C#N)c2ccc(-c3cnc(C)nc3)cc12`: greater than 6.00.
With `CC(=O)c1nn(CC(=O)N2C[C@H](F)C[C@H]2C(=O)Nc2ccn(CCC(F)(F)F)n2)c2ccc(-c3cnc(C)nc3)cc12` the figure was greater than 6.00; with `CCn1ccc(NC(=O)[C@@H]2C[C@@H](F)CN2C(=O)Cn2nc(C(C)=O)c3cc(-c4cnc(C)nc4)ccc32)n1`, greater than 6.00.
With `CC(=O)c1nn(CC(=O)N2C[C@@](F)(CO)C[C@H]2C(=O)Nc2cccc(Br)n2)c2ccc(-c3cnc(C)nc3)cc12`, the negative-log IC50 (pIC50) was greater than 6.00.
Take `CC(=O)c1nn(CC(=O)N2C[C@H](F)C[C@H]2C(=O)NC[C@H]2CC2(Cl)Cl)c2ccc(-c3cnc(C)nc3)cc12`: the pIC50 is greater than 6.00.
Next, `COc1ccc(Br)nc1NC(=O)[C@@H]1C[C@@H](F)CN1C(=O)Cn1nc(C(C)=O)c2cc(-c3cnc(C)nc3)ccc21`: greater than 6.00; `CC(=O)c1nn(CC(=O)N2[C@H](C(=O)NCc3cccc(Cl)c3F)C[C@@]3(C)C[C@@H]23)c2ccc(-c3cnc(C)nc3)cc12`: greater than 6.00; `CC(=O)c1nn(CC(=O)N2C[C@H](F)C[C@H]2C(=O)Nc2nc(Br)ccc2Cl)c2ccc(-c3cnc(C)nc3)cc12`: greater than 6.00.
Take `COCCNc1ncc(-c2ccc3c(c2)c(C(C)=O)cn3CC(=O)N2C[C@H](F)C[C@H]2C(=O)Nc2cccc(Br)n2)cn1`: the negative logarithm of the IC50 (pIC50) was greater than 6.00.
With `CC(=O)c1cn(CC(=O)N2C[C@H](F)C[C@H]2C(=O)Nc2cccc(Br)n2)c2ccc(-c3cnc4ccnn4c3)cc12` the figure was greater than 6.00; with `CC(=O)c1nn(CC(=O)N2[C@@H]3C[C@@H]3C[C@H]2C(=O)Nc2cccc(Br)n2)c2ccc(-c3cnc(NC(C)C)nc3)cc12`, greater than 6.00.
With `CC(=O)c1nn(CC(=O)N2C[C@H](F)C[C@H]2C(=O)Nc2cccc(Br)c2)c2ccc(-c3cnc(C)nc3)cc12` the figure was greater than 6.00; with `CC(=O)c1nn(CC(=O)N2C[C@H](F)C[C@H]2C(=O)Nc2ccc(F)c(Br)c2F)c2ccc(-c3cnc(C)nc3)cc12`, greater than 6.00; with `CC(=O)c1nn(CC(=O)N2C[C@H](F)C[C@H]2C(=O)N[C@H](C)[C@H]2CC2(Cl)Cl)c2ccc(-c3cnc(C)nc3)cc12`, greater than 6.00.
`CC(=O)c1nn(CC(=O)N2[C@H](C(=O)NCC3CC3(Cl)Cl)C[C@@]3(C)C[C@@H]23)c2ccc(-c3cnc(C)nc3)cc12` (stereo partly specified): the negative-log IC50 (pIC50) is greater than 6.00.
Regarding `CC(=O)c1nn(CC(=O)N2C[C@H](F)C[C@H]2C(=O)Nc2cccc(OC(F)(F)F)n2)c2ccc(-c3cnc(N)nc3)cc12`, the negative logarithm of the IC50 (pIC50) is greater than 6.00.
Take `CC(=O)c1nn(CC(=O)N2C[C@H](F)C[C@H]2C(=O)N[C@@H]2C[C@H]2c2ccccc2Cl)c2ccc(-c3cnc(C)nc3)cc12`: the negative logarithm of the IC50 (pIC50) was greater than 6.00.
Next, `CC(=O)c1nn(CC(=O)N2C[C@H](F)C[C@H]2C(=O)NC[C@@H]2CC2(Cl)Cl)c2ccc(-c3cnc(C)nc3)cc12`: greater than 6.00; `CC(=O)c1nn(CC(=O)N2[C@@H]3C[C@@H]3C[C@H]2C(=O)Nc2nc(Br)ccc2C)c2ccc(-c3cnc(C)nc3)cc12`: greater than 6.00; `CC(=O)c1nn(CC(=O)N2[C@@H]3C[C@@H]3C[C@H]2C(=O)NC/C(F)=C(/C)c2ccccc2)c2ccc(-c3cnc(C)nc3)cc12`: greater than 6.00.
For the compound `CC(=O)c1nn(CC(=O)N2[C@H](C(=O)NCc3cccc(Cl)c3)C[C@@]3(C)C[C@@H]23)c2ccc(-c3cnc(C)nc3)cc12`, the pIC50 is greater than 6.00.
With `CC(=O)c1nn(CC(=O)N2C[C@H](F)C[C@H]2C(=O)N[C@H]2C[C@@H]2c2ccccc2Cl)c2ccc(-c3cnc(C)nc3)cc12` the figure was greater than 6.00.
